Data: patent US20110033938A1, “SYSTEM FOR INDUCIBLE GENE EXPRESSION IN CHLAMYDOMONAS” (priority 2008, published 2011)
Where two headings read alike, the source gives them in different places.

Columns and labels:
[1] = test system: Chlamydomonas growth; conditions: for toxicity effects on Chlamydomonas growth: TAP medium; for effect on Chlamydomonas growth rate: all three growth media
From the text: (§1) In order to measure quantitatively the transcription of a gene sequence placed under the control of the Cyc6 promoter, we cloned downstream of this promoter the reporter gene cRLuc (Fuhrmann et al., 2004). This gene was also cloned downstream of the strong constitutive PsaD promoter (Fischer e Rochaix, 2001) obtaining the cassettes Cyc6:cRLuc and PsaD:cRLuc (FIG. 1A). Chlamydomonas cells were transformed with these cassettes according to Kindle (1990) and the transformed cells were inoculated in TAP growth medium (Harris, 1989) at a cell density of 10^6 cells/ml. 30 hours later, Ni2+ was added at a final concentration of 25, 50 and 75 μM and Luc activity was measured in the cellular lysates at different times after induction using the Luciferase Assay System (Promega, cat. E2820).
(§2) Ni2+ was added to cells transformed with the construct Cyc6:cRLuc (indicated as “transformed cells” from now on) and grown in TAP, TAP/ENEA1 and TAP/ENEA2 growth media. […] An ideal inducible gene system should be promptly reversible after the addition of an antagonist of the inducer, effective at micromolar concentrations.
(§3) Since the Cyc6 promoter is switched off by Cu2+, the use of chelators specific for that ion can be an alternative method for the reversible induction of this promoter. As an example, FIGS. 4A and 4B show, respectively, the Luc activity and the growth curves of cells transformed with the construct Cyc6:cRLuc grown in TAP/ENEA2 growth medium and induced with the chelators listed in Table 3. […] In the present invention, we propone an alternative method to the Ni2+/EDTA system: activation by Cu chelators, followed by reversion by Cu2+ addition. […] In these experiments, the Cyc6 promoter was induced by 2 μM TETA and repressed by 1 μM Cu2+ (FIG. 4D) and by 5 μM TETA and by 2 μM Cu2+ (FIG. 4E). At 88 hours from TETA addition, the culture in stationary phase was diluted 1:20 and after 30 hours (0 hours of the second cycle) TETA was added at concentrations of 2 (FIG. 4D) e 5 μM (FIG. 4E). At 16 hours Cu2+ was added at the concentration of 1 (FIG. 4D) and 2 μM (FIG. 4E). […] In the system described here, activation and repression of the promoter are obtained respectively by addition of an inducer and its antagonist. In none of the chemically regulated gene expression systems described to date, such an activation followed by repression has been described.
A: Schematic maps of the PsaD:cRLuc and Cyc6:cRLuc constructs B: Schematic maps of the Cyc6:Rb-int-1, Cyc6:Rb-int-2, Cyc6:Rb:int-3 constructs C: Growth curves in TAP medium after addition of different Ni concentrations D: Luc activity driven by PsaD and Cyc6 in TAP medium after addition of different Ni concentrations
A, C, E: Luc activity of Chlamydomonas cells transformed with the Cyc6:cRLuc construct in TAP, TAP/ENEA1 and TAP/ENEA2 growth media in the presence of 25 μM (A), 50 μM (C), 75 μM (E) Ni2+.

[2] = test system: Cyc6 promoter; assay type: cell-based, Chlamydomonas reinhardtii; conditions: for Luc activity induction relative to PsaD: 75 μM Ni2+
From the text: as §1, §2, §3
A, C, E: Luc activity of Chlamydomonas cells transformed with the Cyc6:cRLuc construct in TAP, TAP/ENEA1 and TAP/ENEA2 growth media in the presence of 25 μM (A), 50 μM (C), 75 μM (E) Ni2+. B, D, F: Growth curves of the transformed cells grown in TAP, TAP/ENEA1 and TAP/ENEA2 growth media in the presence of different Ni2+ concentrations, 25 μM (B), 50 μM (D), 75 μM (F) Ni2+. For the composition of the different media, see Table 2.
(§4) A: Luc activity of cells transformed with Cyc6:cRLuc construct induced by the different chelators listed in Table 3 in TAP/ENEA2 growth medium. B: Growth curves in TAP/ENEA2 growth medium in the presence of different Cu-chelators.

[3] = test system: Cyc6 promoter; assay: Reversibility of Cyc6 promoter induction (Luc activity) after addition of an antagonist (EDTA or Cu2+); assay type: cell-based, Chlamydomonas reinhardtii
From the text: as §3, §4

SMILES: c1cnc2c(c1)ccc1cccnc12 [1.10 phenanthroline, 1,10-phenanthroline]
- toxicity on Chlamydomonas growth ([1]; chelator 10 μM, TAP/ENEA2): toxic

SMILES: Cc1cc(-c2ccc(S(=O)(=O)O)cc2)c2ccc3c(-c4ccc(S(=O)(=O)O)cc4)cc(C)nc3c2n1 [BCS, bathocuproinedisulfonic acid]
- activation of the Cyc6 promoter (Luc activity) ([2]; chelator 10 μM, TAP/ENEA2): able to activate the Cyc6 promoter

SMILES: [Cu+2] [Cu2+]
- effect on Luc activity after TETA induction ([3]; 2 μM Cu2+ added 16 hours after chelator addition, TAP/ENEA2): represses Luc activity
- reversion of TETA induction by Cu2+ ([3]; micromolar Cu2+, TAP/ENEA2, FIG. 4C): can be reverted

SMILES: O=C(O)CN(CCN(CC(=O)O)CC(=O)O)CC(=O)O [EDTA]
- reversion of Cyc6 promoter activity (Luc) by EDTA ([3]; EDTA 25, 50 and 150 μM added 16 hours after 25 or 50 μM Ni2+, TAP/ENEA2 and TAP): only partially reverted

SMILES: Cn1ccnc1CNC1CC(NCc2nccn2C)CC(NCc2nccn2C)C1 (stereo not drawn) [IM, 1,3,5-cis,cis,-triaminocyclohexane-N,N′,N″-tris-(2-methyl-(N-methylimidazole))]
- activation of the Cyc6 promoter (Luc activity) ([2]; chelator 10 μM, TAP/ENEA2): able to activate the Cyc6 promoter

SMILES: [Ni+2] [Ni2+]
- Cyc6 promoter activity in TAP, TAP/ENEA1 and TAP/ENEA2 ([2]; 25 μM Ni2+): active only in TAP/ENEA2 growth medium
- activation of the Cyc6 promoter ([2]; 25 μM Ni2+, TAP medium): not sufficient to activate the Cyc6 promoter
- Cyc6 promoter activity relative to PsaD promoter ([2]; 25 μM Ni2+, TAP/ENEA2): same level of activity as the strong PsaD promoter
- increase of Cyc6 promoter activity in TAP/ENEA2 with respect to TAP medium ([2]; 50 μM Ni2+): 25 times
- Cyc6 promoter activity relative to PsaD ([2]; 50 μM Ni2+, TAP): 1/10
- Cyc6 promoter activity relative to PsaD ([2]; 50 μM Ni2+, TAP/ENEA1): ½
- Cyc6 promoter activity relative to PsaD ([2]; 50 μM Ni2+, TAP/ENEA2): 2.5 fold more than PsaD
- Luc activity induction relative to PsaD ([2]; TAP/ENEA1): about two-fold
- Luc activity induction relative to PsaD ([2]; TAP/ENEA2): about two-fold
- Luc activity after induction compared to PsaD promoter ([2]; 25, 50 and 75 μM Ni2+, TAP medium): low compared to the Luc activity driven by the PsaD promoter
- toxicity effects on Chlamydomonas growth ([1]; 25 μM Ni2+): does not have toxic effects
- toxic effects on growth ([1]; 25 μM Ni2+, all three growth media (TAP, TAP/ENEA1, TAP/ENEA2)): only minor toxic effects
- toxicity effects on Chlamydomonas growth ([1]; 50 μM Ni2+): toxicity effects
- effect on Chlamydomonas growth rate ([1]; 50 μM Ni2+): evident slowing down of Chlamydomonas growth rate
- toxicity effects on Chlamydomonas growth ([1]; 75 μM Ni2+): toxicity effects
- effect on Chlamydomonas growth rate ([1]; 75 μM Ni2+): evident slowing down of Chlamydomonas growth rate

SMILES: NCCNCCNCCN [TETA, triethylentetramine]
- Cyc6 promoter activation in TAP/ENEA2 versus TAP [2]: only in TAP/ENEA2 growth medium
- activation of the Cyc6 promoter (Luc activity) [2]: able to activate the Cyc6 promoter
- time course of Luc activity after chelator addition [2]: increases steadily until 48 hours
- induction in a second growth cycle [3]: a second induction is obtained
